The numbers were not newly measured in US20090035369A1, “Composition and Methods for Treating and Preventing Age-Related Macular Degeneration” (priority 2006, published 2009), which cites them from elsewhere.

The subject of one data set is neovascularization. To be noted: rodent model.
The conditions of data set [1]: pure DIM.
The conditions of data set [2]: pure DIM. The source holds these as a separate data set.

Each structure is given as a SMILES string.

With `c1ccc2c(Cc3c[nH]c4ccccc34)c[nH]c2c1` [DIM, 3,3′-diindolylmethane], the inhibition of neovascularization result in the data set with neovascularization is listed as “up to 76%”. Moreover, the solubility entry in data set [1] is on record as “insoluble”. In data set [2], the “absorption by the human body” value was “poorly absorbed”.
